From patent publication US20250381110A1, “SKIN CARE COMPOSITION AND METHOD OF USING THE SAME” (THE PROCTER & GAMBLE COMPANY, priority 2024, published 2025)

How the values were obtained:
[1] = system: human dermal fibroblasts (HDFs); assay: EdU incorporation assay; format: cell-based; conditions: HDFs from aged donors; 30 μM, 7 h
[2] = system: human dermal fibroblasts (HDFs); assay: Seahorse analysis, ATP production normalized to MitoTracker density; format: cell-based; conditions: HDFs from aged donors; 30 μM, 7 h
Experimental: (§1) The Seahorse XF Cell Mito Stress Test Kit (Agilent) was used to measure oxygen consumption rates in adult dermal fibroblasts. One day prior to the assay cells were seeded at either 4000 per well or 3000 per well. Where indicated, fibroblast plates were subjected to 20Gy IR 2 h before assay. STOCKIN (30 mM) or vehicle (DMSO) treatments were performed 7 h before Seahorse assays. HDFs were stained with 100 nM Mitotracker Green for mitochondrial density measurement. The Mito Stress Test was performed as per manufacturer's guidelines on a Seahorse XF96 Extracellular Flux analyser using previously optimized conditions. Following assay completion, cells were fixed in 4% PFA for 20 minutes. PFA was then removed, and cells were washed twice with PBS. Following fixation, cells were stained with Hoescht nucleic acid stain (Invitrogen) for 10 min before being washed twice in PBS. Fluorescence was subsequently measured using the PHERAstar FSX plate reader (BMG LABTECH) at 350/460 nm for normalization purposes. Following normalization, OCR measurements were interpreted from data generated from the Agilent Seahorse Wave software version 2.6.3.5. Basal respiration data in unstressed conditions is presented. OCR measurements were further normalised to mitochondrial density to obtain ATP production (pmol/min/mitochondria).

IL-6 = assay: SASP assessment, IL-6 mRNA by qPCR; format: cell-based, human
Experimental: (§2) Quantibody Human Cytokine Arrays for 20 cytokines (RayBiotech; QAH-CYT-1) were performed using conditioned media collected from primary dermal fibroblasts culture. mRNA levels of human IL-6 and IL-8 were measured by quantitative polymerase chain reaction (qPCR. Total RNA was extracted using RNeasy Mini Kit (QIAGEN, 74104). From 500 ng of total RNA, first-strand complementary DNA (cDNA) was produced using SuperScript III reverse transcriptase (Invitrogen, 18080044). Quantitative PCR was performed in a StepOnePlus Real-Time PCR system (Applied Biosystems) using Power SYBR Green PCR Master Mix (Applied Biosystems, 4367659). mRNA levels were determined with the […] and normalised to GAPDH levels.

IL-8 = assay: SASP assessment, IL-8 mRNA by qPCR; format: cell-based, human; conditions: HDFs; 30 μM for 5 h prior to IR; 11 days after IR
Experimental: as §2

[3] = system: human dermal fibroblasts (HDFs); assay: Average nuclear size by immunofluorescence microscopy; format: cell-based
Experimental: Immunofluorescence analyses were performed as described previously (Carroll et al.). In brief, cells were seeded on coverslips in 24-well plates and fixed in 4% formaldehyde in PBS for 10 min at room temperature followed by permeabilization in 0.5% Triton X-100 (Sigma-Aldrich) in PBS for 4 min at room temperature (Ki67 and p21) or in methanol for 4 min at −20° C. (LC3 and p62). Cells were then blocked for 1 h in 5% normal goat serum (Sigma-Aldrich) in PBS at room temperature and incubated with primary antibodies overnight at 4° C. Cells were washed three times and incubated with the appropriate secondary antibodies for 1 h at room temperature (Thermo Fisher Scientific, A31556 and A21235, 1:1000). Cells were washed, and coverslips were mounted on slides with Prolong Gold antifade mountant with DAPI (Invitrogen). Fluorescence images were obtained as described above. The following primary antibodies were used: rabbit anti-Ki67 (Abcam, ab 15580, 1:250), rabbit anti-p21 (CST, 2947, 1:1000), mouse anti-LC3 (NanoTools, 0260-100, 1:200) and rabbit anti-p62 (MBL, PM045, 1:500).

[4] = system: human dermal fibroblasts (HDFs); assay: Mitochondrial mass by Mitotracker Green staining; format: cell-based; conditions: HDFs from aged donors; 30 μM, 7 h
Experimental: as §1, with “STOCKIN (30 mM) or vehicle (DMSO) treatments were performed 7 h before Seahorse assays.” left out

[5] = HDFs from aged donors, 30 μM, 7 h

CC(=O)Oc1ccc(N2C(=O)C3C(Cc4ccccc4)NC4(C(=O)Nc5c4ccc(Cl)c5C)C3C2=O)cc1 (centres unmarked) [STOCKIN-57543]
cellular proliferation capacity (EdU incorporation) [1]: restoring cellular proliferation capacity
mitochondrial function (ATP production per cell normalized to MitoTracker density) [2]: restoring
levels of the SASP factor IL-6 (mRNA) (IL-6; [5]): decreasing levels of the SASP factor IL-6
IR-associated increase in IL-6 level (mRNA) (IL-6; HDFs, 30 μM for 5 h prior to IR, 11 days after IR): mitigating IR-associated increases in levels of the SASP factors IL-6 and IL-8
IR-associated increase in IL-8 level (mRNA) (IL-8): mitigating IR-associated increases in levels of the SASP factors IL-6 and IL-8
nuclear size [3, 5]: decreasing a senescence-associated increase in nuclear size
IR-associated increase in nuclear size ([3]; HDFs, treatment 5 h prior to IR): mitigating IR-associated increase in nuclear size
mitochondrial mass [4]: restoring mitochondrial mass
